From patent publication US7858348B2, “N-acetyl-(R,S)-beta-amino acid acylase gene” (Ajinomoto Co., Inc., priority 2006, dated 2010)

How the values were obtained:
Format in all cases: biochemical
[1] = system: N-acetyl-(R)-β-amino acid acylase derived from Variovorax sp. AJ110348 (JM109/pSFN_1VR cell-free extract); assay: Substrate specificity and optical selectivity with cell-free extract of JM109/pSFN_1VR; conditions: for Concentration of acetic acid detected: JM109/pSFN_1VR 50 mU cell-free extract, 37° C.; for optical selectivity of β-amino acid produced (ee): after reacting for 24 hours; for optical selectivity of β-amino acid produced (ee) / β-amino acid enantiomer detected in the reaction solution: chiral HPLC; for β-amino acid enantiomer detected in the reaction solution: 24 hours (10 minutes for the 3,4-(—O—CH2—O—) substrate)
Description: (§1) An Astec Chirobiotec T (0.46 cm in diameter, 25 cm) column was employed. A 90 percent MeOH mobile phase was employed. The temperature was 40° C. and the flow rate was 0.4 mL/minute. Optical selectivity was determined based on comparison with various standard (R) and (S) standard products under UV detection conditions of 205 nm.
(§2) The column employed was comprised of an Inertsil ODS3 (0.46 cm in diameter, 5 cm) made by GL Science and a Chiralpak WH (0.46 cm in diameter, 25 cm) made by Daisel Chemical Industries, arranged consecutively in that order. The mobile phase was 1 mM CuSO4, 10 percent MeOH. The temperature was 50° C. and the flow rate was 1.0 mL/minute. Detection was conducted with a UV detector at 210 nm and optical selectivity was determined by comparison with standard (R) and (S) products.
(§3) JM109/ptrp4—3BR, JM109/pSFN—2BS, and JM109/pSFN—1VR were precultured for 16 hours at 37° C. in LB medium containing 100 mg/L of ampicillin. 1 mL quantity of the cultured bacterial cells was transplanted to 50 mL of TB medium containing 100 mg/L of ampicillin and cultured for 16 hours at 30° C. The bacterial cells obtained were centrifugally separated to concentrate the bacteria cells. The bacterial cells were washed with 50 mM Tris buffer solution (pH 7.6) and the same buffer solution was used to prepare a bacterial cell suspension. Ultrasonic rupturing was employed to rupture the bacterial cells. A supernatant solution obtained by centrifugal separation (15,000 g, 10 minutes, 4° C.) was employed as a cell-free extract, and substrate specificity for the various N-acetyl-(R,S)-β-amino acids described above in Embodiments 2-1 to 9 was examined.
(§4) After adjusting the enzymes by the above methods, their activity was measured. Activity producing 1 μmol of β-Phe per minute from N-acetyl-(R,S)-β-Phe was denoted as 1 U. In the various examination of substrate specificity, 50 mU cell-free extracts were employed. As a negative control, instead of the cell-free medium prepared as set forth above, a 50 mM Tris buffer solution (pH 7.6) that had been reacted with each of the substrates was employed as an “Enzyme-” test zone, and instead of the individual substrates, 50 mM Tris buffer solution (pH 7.6) that had been reacted with each of the cell-free extracts was employed as a “Substrate-” test zone.
(§5) 50 mM Tris-HCl (pH 7.6) and 0.2 percent of various N-acetyl-(R,S)-β-amino acids were reacted at 37° C. for 1 hour or 24 hours, and then processed for 10 minutes at 96° C. to stop the reactions. The quantity of acetic acid produced by the decomposition of acetyl groups was determined by the protocol of an acetic acid kit (Roche).
(§6) After reacting for 24 hours, the samples were analyzed with various chiral resolution columns to determine optical selectivity.
(§7) A 300 μL quantity of culture solution was washed with 50 mM Tris-HCl (pH 7.6), suspended in 300 μL of 50 mM Tris-HCl (pH 7.6), and subjected to ultrasonic rupturing to rupture the bacteria. A supernatant solution obtained by centrifugal separation (15,000 g, 10 minutes, 4° C.) was employed as cell-free extract in the reaction.
(§8) 50 mM Tris-HCl (pH 7.6) and 0.2 percent N-acetyl-(R,S)-3,4-(—O—CH2—O—)-β-phenylalanine were reacted for 10 minutes at 37° C. When 3,4-(—O—CH2—O—)-β-phenylalanine was quantized under the separation conditions of N-acetyl-β-Phe and β-Phe, the activity per mL of cell-free extract was 0.2 U for JM109/ptrp4—3BR, 3.9 U for JM109/pSFN—2BS, and 27.8 U for JM109/pSFN—1VR.
(§9) Various enzymes were prepared from the same bacterial cells and by the same methods as in 12-1, and 50 mU cell-free extracts were employed in the reaction. 50 mM Tris-HCl (pH 7.6) and 1 percent N-acetyl-(R,S)-β-3-Pyr-Ala were reacted for 1 hour at 37° C., after which the reaction was stopped by treatment at 70° C. for 10 minutes. The quantity of acetic acid generated by the decomposition of acetyl groups was determined by the protocol of an acetic acid kit (Roche).

[2] = system: N-acetyl-(R)-β-amino acid acylase derived from Burkholderia sp. AJ110349 (JM109/ptrp4_3BR cell-free extract); assay: Substrate specificity and optical selectivity with cell-free extract of JM109/ptrp4_3BR; conditions: for Concentration of acetic acid detected: JM109/ptrp4_3BR 50 mU cell-free extract, 37° C.; for optical selectivity of β-amino acid produced (ee): after reacting for 24 hours; for optical selectivity of β-amino acid produced (ee) / β-amino acid enantiomer detected in the reaction solution: chiral HPLC; for β-amino acid enantiomer detected in the reaction solution: 24 hours (10 minutes for the 3,4-(—O—CH2—O—) substrate)
Description: as §1, §2, §3, §4, §5, §6, §7, §8, §9

[3] = system: N-acetyl-(S)-β-amino acid acylase derived from Burkholderia sp. AJ110349 (JM109/pSFN_2BS cell-free extract); assay: Substrate specificity and optical selectivity with cell-free extract of JM109/pSFN_2BS; conditions: for optical selectivity of β-amino acid produced (ee) / β-amino acid enantiomer detected in the reaction solution: JM109/pSFN-2BS, chiral HPLC; for optical selectivity of β-amino acid produced (ee): after reacting for 24 hours; for β-amino acid enantiomer detected in the reaction solution: 24 hours (10 minutes for the 3,4-(—O—CH2—O—) substrate); for Concentration of acetic acid detected: JM109/pSFN_2BS 50 mU cell-free extract, 37° C.
Description: as §1, §2, §3, §4, §5, §6, §7, §8, §9

[4] = 0.2 percent substrate, 24 hours

SMILES | Concentration of acetic acid detected ([1]; 0.2 percent substrate, 1 hour) [mM] | Concentration of acetic acid detected [1, 4] [mM] | optical selectivity of β-amino acid produced (ee) ([1]; JM109/pSFN—1VR) [% ee] | β-amino acid enantiomer detected in the reaction solution ([1]; JM109/pSFN—1VR) | Concentration of acetic acid detected ([2]; 0.2 percent substrate, 1 hour) [mM] | Concentration of acetic acid detected [2, 4] [mM] | optical selectivity of β-amino acid produced (ee) ([2]; JM109/ptrp4—3BR) [% ee] | β-amino acid enantiomer detected in the reaction solution ([2]; JM109/ptrp4—3BR) | optical selectivity of β-amino acid produced (ee) [3] [% ee] | β-amino acid enantiomer detected in the reaction solution [3] | Concentration of acetic acid detected ([3]; 0.2 percent substrate, 1 hour) [mM] | Concentration of acetic acid detected [3, 4] [mM] | activity per mL of cell-free extract ([1]; JM109/pSFN—1VR, 0.2 percent substrate, 10 minutes at 37° C.) [U] | activity per mL of cell-free extract ([2]; JM109/ptrp4—3BR, 0.2 percent substrate, 10 minutes at 37° C.) [U] | activity per mL of cell-free extract ([3]; JM109/pSFN—2BS, 0.2 percent substrate, 10 minutes at 37° C.) [U] | acetic acid detected ([1]; JM109/pSFN—1VR 50 mU cell-free extract, 1 percent substrate, 1 hour at 37° C.) [mM] | acetic acid detected ([2]; JM109/ptrp4—3BR 50 mU cell-free extract, 1 percent substrate, 1 hour at 37° C.) [mM] | acetic acid detected ([3]; JM109/pSFN—2BS 50 mU cell-free extract, 1 percent substrate, 1 hour at 37° C.) [mM]
CC(=O)NC(CC(=O)O)c1ccc(F)cc1 (racemic) [N-Ac-β-4-F-Phe, N-acetyl-(R,S)-4-fluoro-β-Phe] | 4.6 | 4.7 | > 99 | (R)-4-fluoro-β-Phe was detected | 4.6 | 5.4 | 94 | (R)-4-fluoro-β-Phe was detected | > 99 | (S)-4-fluoro-β-Phe was detected | 5.2 | 5.1 |  |  |  |  |  | 
CC(=O)NC(C)CC(=O)O (racemic) [N-Ac-β-Aba, N-acetyl-(R,S)-β-aminobutyric acid] | 0.0 | 0.1 |  |  | 0.1 | 0.6 |  |  |  |  | 0.1 | 0.3 |  |  |  |  |  | 
CC(=O)NC(CC(=O)O)C(C)C (racemic) [N-Ac-β-Leu, N-acetyl-(R,S)-β-Leu] | 0.0 | 1.0 | > 99 | (R)-β-Leu was detected | 0.2 | 5.6 | > 99 | (R)-β-Leu was detected | > 99 | (S)-β-Leu was detected | 1.6 | 6.2 |  |  |  |  |  | 
CC(=O)NC(CC(=O)O)c1ccccc1 (racemic) [N-Ac-β-Phe, N-acetyl-(R,S)-β-Phe] | 5.2 |  |  |  | 5.0 |  |  |  |  |  | 5.3 |  |  |  |  |  |  | 
CC(=O)NC(CC(=O)O)c1ccc(O)cc1 (racemic) [N-Ac-β-Tyr, N-acetyl-(R,S)-β-Tyr] | 5.1 | 4.6 | > 99 | (R)-β-Tyr was detected | 4.5 | 4.9 | 61 | (R)-β-Tyr was detected | > 99 | (S)-β-Tyr was detected | 5.2 | 5.2 |  |  |  |  |  | 
CC(=O)NC(CC(=O)O)CC(C)C (racemic) [N-Ac-β-homoLeu, N-acetyl-(R,S)-β-homoLeu] | 0.0 | 0.6 | > 99 | (S)-β-homoLeu was detected | 3.0 | 7.5 | 69 | (S)-β-homoLeu was detected | > 99 | (R)-β-homoLeu was detected | 1.2 | 5.4 |  |  |  |  |  | 
CC(=O)NC(CC(=O)O)Cc1ccccc1 (racemic) [N-Ac-β-homoPhe, N-acetyl-(R,S)-β-homoPhe] | 0.1 | 2.6 | > 99 | (S)-β-homoPhe was detected | 1.6 | 3.7 | 98 | (S)-β-homoPhe was detected | > 99 | (R)-β-homoPhe was detected | 0.5 | 4.0 |  |  |  |  |  | 
CC(=O)NC(CC(=O)O)c1ccc2c(c1)OCO2 (racemic) [N-acetyl-(R,S)-3,4-(—O—CH2—O—)-β-phenylalanine] |  |  |  | (R)-3,4-(—O—CH2—O—)-β-phenylalanine was detected |  |  |  | (R)-3,4-(—O—CH2—O—)-β-phenylalanine was detected |  | (S)-3,4-(—O—CH2—O—)-β-phenylalanine was detected |  |  | 27.8 | 0.2 | 3.9 |  |  | 
CC(=O)NC(CC(=O)O)c1cccnc1 (racemic) [N-acetyl-(R,S)-β-3-Pyr-Ala] |  |  |  |  |  |  |  |  |  |  |  |  |  |  |  | 0.8 | 3.5 | 8.4
